Values after ≈ are worked out from the molar mass of the structure shown. Read-outs that look alike come from different tables or passages of the source.
Columns and labels:
[1] = system: Respiratory syncytial virus A2; assay: microbe, parasite or virus in culture; type: cell-based
[2] = Neutral Red toxicity in Huh7 cells, secondary (Zika-094); details: human
Zika Virus [3] = assay: Zika prevention, CPE inhibition (Neutral Red), Huh7, 24 h pre-incubation (Zika-138); type: cell-based; details: Zika virus, Huh-7, Neutral Red (Cytopathic effect), pre-incubated 24 hours prior to infection, read-out: EC50
[4] = NR toxicity in RAW264.7 cells (17-09); details: mouse
[5] = RNA Hybridization toxicity in HG23 cells (16-21); type: cell-based; details: human, HG23 cells
Text: (§1) Secondary testing was done with human norovirus.

[6] = Toxicity in Vero 76 cells, primary screen (Zika-089); details: monkey
in vitro [7] = details: African green monkey
Zika Virus [8] = assay: Zika virus yield reduction (VYR), Huh7, secondary (Zika-094); type: cell-based; details: Huh-7, Visual (Virus yield reduction), MR766
mouse norovirus (MNV-1) = assay: Mouse norovirus CPE inhibition (NR), RAW264.7 (17-09); type: cell-based; details: Norovirus
[9] = Neutral Red toxicity in Vero 76 cells, secondary (Zika-094); details: monkey
Lassa fever virus Josiah = assay: organism not typed; type: cell-based
[10] = Neutral Red toxicity in Vero 76 cells, 24 h pre-incubation (Zika-138); details: monkey
in vitro [11] = details: African green monkey; remark: listed apart in the source
[12] = Toxicity in A549 cells (ADV-0172); type: cell-based; details: human, A549 cells
Zika Virus [13] = assay: Zika virus cytopathic effect (CPE) inhibition, Vero 76, primary screen (Zika-089); type: cell-based; details: for EC50: Zika virus, MR766, Vero 76, primary
MDCK = details: Neutral Red (Toxicity)
Zika Virus [14] = assay: Zika prevention, virus yield reduction (VYR), Vero 76, 4 h pre-incubation (Zika-138); type: cell-based; details: Zika virus, Visual (Virus yield reduction), pre-incubated 4 hours prior to infection, read-out: EC90
Zika Virus [15] = assay: Zika prevention, virus yield reduction (VYR), Huh7, 24 h pre-incubation (Zika-138); type: cell-based; details: for Virus Titer: 24 hr pre-incubation, Huh7 cells
Protocol: (§2) An experiment was carried out as specified in Example 8. In a Zika Prevention Trial, MPA was pre-incubated with human cells 4 hours or 24 hours before Zika virus infection.

Zika Virus [16] = assay: Zika prevention, virus yield reduction (VYR), Huh7, 4 h pre-incubation (Zika-138); type: cell-based; details: for Virus Titer: 4 hr pre-incubation, Huh7 cells
Protocol: as §2

in vitro [17] = details: dog
Zika Virus [18] = assay: Zika virus yield reduction (VYR), Vero 76, secondary (Zika-094); type: cell-based; details: Visual (Virus yield reduction), MR766
Zika Virus [19] = assay: Zika prevention, CPE inhibition (Neutral Red), Huh7, 4 h pre-incubation (Zika-138); type: cell-based; details: Zika virus, Huh-7, Neutral Red (Cytopathic effect), pre-incubated 4 hours prior to infection, read-out: EC50
Zika Virus [20] = assay: Zika virus CPE inhibition (Neutral Red), Huh7, secondary (Zika-094); type: cell-based
Vero76 = details: African green monkey
Zika Virus [21] = assay: Zika prevention, virus yield reduction (VYR), Vero 76, 24 h pre-incubation (Zika-138); type: cell-based; details: Zika virus, Visual (Virus yield reduction), pre-incubated 24 hours prior to infection, read-out: EC90
[22] = NR toxicity in HG23 cells (17-14); type: cell-based; details: human, HG23 cells, NR (Tox)
Text: as §1

Zika Virus [23] = assay: Zika virus CPE inhibition (Neutral Red), Vero 76, secondary (Zika-094); type: cell-based; details: Neutral Red (Cytopathic effect), MR766
Adenovirus5 Adenoid75 = assay: Adenovirus 5 CPE inhibition, A549 (ADV-0172); type: cell-based; details: for EC50: Human mastadenovirus C, A549, read-out: EC50
Powassan virus LB = assay: microbe, parasite or virus in culture; type: cell-based; details: for EC50: Powassan virus, BHK
Zika Virus [24] = assay: Zika prevention, CPE inhibition (Neutral Red), Vero 76, 24 h pre-incubation (Zika-138); type: cell-based; details: Zika virus, Neutral Red (Cytopathic effect), pre-incubated 24 hours prior to infection, read-out: EC50
Zika Virus [25] = assay: Zika prevention, CPE inhibition (Neutral Red), Vero 76, 4 h pre-incubation (Zika-138); type: cell-based; details: Zika virus, Neutral Red (Cytopathic effect), pre-incubated 4 hours prior to infection, read-out: EC50
[26] = Cell Titer-Glo toxicity in C-33A cells (HPV16-15); details: human
[27] = Neutral Red toxicity in Huh7 cells, 24 h pre-incubation (Zika-138); details: human
[28] = system: Influenza A virus H1N1 California/07/2009; assay: microbe, parasite or virus in culture; type: cell-based

## COc1c(C)c2c(c(O)c1C/C=C(\C)CCC(=O)O)C(=O)OC2 [EP1601, 6-(4-hydroxy-6-methoxy-7-methyl-3-oxo-1,3-dihydroisobenzofuran-5-yl)-4-methyl-hex-4-enoic acid]
[1]
  activity against Respiratory Syncytial Virus: highly active
[1]; human respiratory syncytial virus, MA104
  EC50: < 0.1 µg/mL
[2]
  CC50: 1.6 µg/mL (≈ 4.99 µM)
Zika Virus [3]
  EC50: 0.55 µg/mL (≈ 1.72 µM)
[4]
  CC50: 32 µM
[5]
  CC50: > 100 µM
[6]; CC50, Neutral Red (Toxicity)
  CC50: 14 µg/mL (≈ 43.7 µM)
[6]; CC50, Visual (Toxicity)
  CC50: > 100 µg/mL
In vitro [7]
  CC50: > 100 µg/mL
Zika Virus [8]
  EC90: 0.088 µg/mL (≈ 0.275 µM)
Mouse norovirus (MNV-1)
  EC50: 0.123 µM
  EC90: 0.384 µM
[9]
  CC50: 2.3 µg/mL (≈ 7.18 µM)
Lassa fever virus Josiah
  activity against Lassa Fever: active
Lassa fever virus Josiah; Vero
  EC50: 0.2 µg/mL (≈ 0.624 µM)
[10]
  CC50: 37 µg/mL (≈ 116 µM)
In vitro [11]
  CC50: 26 µg/mL (≈ 81.2 µM)
[12]; Neutral Red (Toxicity)
  CC50: 12 µg/mL (≈ 37.5 µM)
[12]; Visual (Toxicity)
  CC50: 15 µg/mL (≈ 46.8 µM)
Zika Virus [13]; Vero 76, Neutral Red (Cytopathic effect)
  EC50: 0.15 µg/mL (≈ 0.468 µM)
Zika Virus [13]; Vero 76, Visual (Cytopathic effect)
  EC50: < 0.1 µg/mL
Zika Virus [13]; three in vitro tests (Zika-A, Zika-B, Zika-C)
  activity against Zika Virus: active
MDCK
  CC50: > 100 µM
Zika Virus [14]
  EC90: 17.8 µg/mL (≈ 55.6 µM)
Zika Virus [15]; Huh7 cells pre-incubated with drug for 24 hrs
  virus in VYR assay: reduced virus to zero
Zika Virus [15]; MPA 0.1 μg/ml
  Virus Titer: 4.5 Log10 CCID50/0.1 ml
Zika Virus [15]; MPA 1 μg/ml
  Virus Titer: 3.5 Log10 CCID50/0.1 ml
Zika Virus [15]; MPA 10 μg/ml
  Virus Titer: <.67 Log10 CCID50/0.1 ml
Zika Virus [15]; MPA 32 μg/ml
  Virus Titer: <.67 Log10 CCID50/0.1 ml
Zika Virus [15]; MPA 100 μg/ml
  Virus Titer: <.67 Log10 CCID50/0.1 ml
Zika Virus [15]; Zika virus, Huh-7, Visual (Virus yield reduction), Huh7, pre-incubated 24 hours prior to infection, read-out: EC90
  EC90: 0.78 µg/mL (≈ 2.43 µM)
Zika Virus [15]; given 24 hours before infection
  prevention of infection by Zika virus: completely prevent infection
Zika Virus [16]; MPA 0.1 μg/ml
  Virus Titer: 4.5 Log10 CCID50/0.1 ml
Zika Virus [16]; MPA 1 μg/ml
  Virus Titer: 4.5 Log10 CCID50/0.1 ml
Zika Virus [16]; MPA 10 μg/ml
  Virus Titer: 4.5 Log10 CCID50/0.1 ml
Zika Virus [16]; MPA 32 μg/ml
  Virus Titer: 4.5 Log10 CCID50/0.1 ml
Zika Virus [16]; MPA 100 μg/ml
  Virus Titer: 0.67 Log10 CCID50/0.1 ml
Zika Virus [16]; Zika virus, Huh-7, Visual (Virus yield reduction), Huh7, pre-incubated 4 hours prior to infection, read-out: EC90
  EC90: 42.7 µg/mL (≈ 133 µM)
Zika Virus [16]; given 4 hours before the infection
  mitigation of infection by Zika virus: strongly mitigated the infection
In vitro [17]
  CC50: > 100 µM
Zika Virus [18]
  EC90: 0.3 µg/mL (≈ 0.937 µM)
Zika Virus [19]
  EC50: 0.17 µg/mL (≈ 0.531 µM)
Zika Virus [20]; Huh-7, Neutral Red (Cytopathic effect), MR766, Huh7, secondary
  EC50: 0.14 µg/mL (≈ 0.437 µM)
Zika Virus [20]; Huh-7, Zika virus, 'one of our tests' (test not specified), read-out: EC50
  EC50: 0.049 µg/mL (≈ 0.153 µM)
Vero76
  CC50: 17 µg/mL (≈ 53.1 µM)
Zika Virus [21]
  EC90: 10 µg/mL (≈ 31.2 µM)
[22]
  CC50: 64 µM
Zika Virus [23]
  EC50: 0.14 µg/mL (≈ 0.437 µM)
Adenovirus5 Adenoid75
  activity against Adenovirus 5: active
Adenovirus5 Adenoid75; A549, Neutral Red (Cytopathic effect)
  EC50: 0.31 µg/mL (≈ 0.968 µM)
Adenovirus5 Adenoid75; A549, Visual (Cytopathic effect)
  EC50: 0.32 µg/mL (≈ 0.999 µM)
Powassan virus LB
  activity against Powassan: active
Powassan virus LB; Neutral Red (Cytopathic effect)
  EC50: 0.36 µg/mL (≈ 1.12 µM)
Powassan virus LB; Visual (Cytopathic effect)
  EC50: 0.32 µg/mL (≈ 0.999 µM)
Zika Virus [24]
  EC50: 8 µg/mL (≈ 25 µM)
Zika Virus [25]
  EC50: > 100 µg/mL
[26]
  CC50: > 150 µM
[27]
  CC50: 1.4 µg/mL (≈ 4.37 µM)
[28]
  activity against pandemic Influenza A H1N1 (California/07/2009): highly active
[28]; Influenza A virus, H1N1, MDCK
  EC50: < 0.1 µM
